The subject of assay [1] is rats with spinal cord injury. In words: BBB locomotor test after moderate to severe spinal cord injury. In kind it is in vivo, rat. Particulars: intrathecal via ESOX pump, 60 μl per day. The protocol: In this study, twenty-four rats deeply anesthetized rats received a moderate to severe spinal cord injury using a 2-French Fogarty embolectomy catheter. Shortly after injury, a 1-French silicon tubing was threaded into the intrathecal space from the atlanto-occipital membrane. The intrathecal catheter was connected an ESOX that was implanted subcutaneously. The ESOX pump flowed at a rate of 60 μl per day. Animals were randomly assigned to receive saline or salicylate. Animals were tested each week using the BBB locomotor test. All of the behavioral testing was done by a person who was unaware of the type of drug delivered or the expected effects of the drug. […] The average score for the saline treated rats was 0 while the average score for salicylate treated rats was 5.45.

The test system of assay [2] is rats with chronic spinal cord injury exhibiting allodynia. In words: Intrathecal salicylate for pain: allodynia on light touch in rats with chronic spinal cord injury. The assay is classed as in vivo, rat. Particulars: intrathecal via ESOX pump, 60 μl per day; two rats; saline replaced by salicylate. The protocol: A 1-French silicon tubing was threaded into the intrathecal space from the atlanto-occipital membrane. The intrathecal catheter was connected an ESOX that was implanted subcutaneously. The ESOX pump flowed at a rate of 60 μl per day. Initially, saline was placed in the pumps. At testing on days 2, 12, 14 after pump placement, signs of allodynia were consistently observed when the animals were lightly touched at particular parts of their body (left flank for rat 1 and right shoulder for rat 2). Animals vocalized consistently when these areas were lightly touched. All of the behavioral testing was done by a person who was unaware of the type of drug delivered or the expected effects of the drug. The saline was removed from the pumps and the pumps were refilled with salicylate. […] When the salicylate was removed and replaced with saline, consistent allodynia was observed.

Assay [3] has as its system Male Sprague-Dawley rats. Particulars: rat, in vivo.
Assay [4] deals with Male Sprague-Dawley rats. Particulars: rat, in vivo. The source holds these as a separate data set.
Assay [5] deals with Male Sprague-Dawley rats. Particulars: rat, in vivo. This is another data set of the same source.

Like-named read-outs stand apart in the source and are kept apart here.

As for `O=C(O)c1ccccc1O` [salicylate], the “functional deficits versus saline” value in assay [1] is “on average less functional deficits”. The “average BBB locomotor score” value in assay [1] (started shortly after injury) came out at 5.45. Further, in assay [2], the “allodynia (vocalization when lightly touched)” value was “no evidence of allodynia was observed”.

Take “choline-magnesium trisalicylate [Choline-Mg-Salicylate]”: in the assay with Male Sprague-Dawley rats [3], the “effect on flinches/licks of the hindpaw (formalin test)” value is recorded as “produced an effect”. Further, in the assay with Male Sprague-Dawley rats [4], the duration of effects entry is recorded as “not long-lasting”, the “onset of response to the bolus” value was “rapid in onset” and the “tail flick latency response” value is on record as “dose-dependent”. In the assay with Male Sprague-Dawley rats [5], the “colorectal distension visceromotor response threshold” value is recorded as “dose-dependent”, the duration of effects entry is listed as “not long-lasting” and the “onset of response to the bolus” value is listed as “rapid in onset”.

Source of the values: patent US8513281B1 (priority 1999, dated 2013).
